# Reference: article PMC9175088 (Drug Metabolism Letters, 2021)
# Columns and labels:
# [1] = Metabolism of enflicoxib and E-6132 in cryopreserved hepatocytes; conditions: male, Wistar, rat
# [2] = as above
# [3] = enantiomers of enflicoxib; cited from earlier work
# [4] = Enflicoxib metabolism in intestinal microsomes
# [5] = Enflicoxib metabolism in intestinal microsomes; remark: listed apart in the source
# [6] = Secondary phase I metabolism in liver microsomes, unlabeled substrates; type: in vitro ADME; conditions: rat liver microsomes, positive control 10 µM; experiments with M8 as substrate
# [7] = dog hepatocytes, positive control 10 µM
structure (smiles),measurement,setting,value
Cc1cc(=O)oc2cc(O)ccc12 [7-hydroxy-4-methylcoumarin],half-life at 10 µM,[1],< 5.9 min
same,K,[2]; [7],-0.0658
same,half-life at 10 µM,"[2]; male, beagle, dog, cryopreserved hepatocytes",10.5 min
"NS(=O)(=O)c1ccc(N2N=C(C(F)(F)F)C[C@H]2c2ccc(F)cc2F)cc1 [Metabolite E-6232, (S)-(-)-enflicoxib]",Pharmacological activity of enantiomer,[3],active enantiomer
"NS(=O)(=O)c1ccc(N2N=C(C(F)(F)F)C[C@@H]2c2ccc(F)cc2F)cc1 [Metabolite E-6231, (R)-(+)-enflicoxib]",Pharmacological activity of enantiomer,[3],negligible
"C[C@]12CC[C@H]3[C@@H](CCC4=CC(=O)CC[C@@]43C)[C@@H]1CC[C@@H]2O [Testosterone, testosterone]",K,"[4]; dog intestinal microsomes, positive control 10 µM",-0.0195
same,half-life at 10 µM,"[4]; male, beagle, dog, intestinal microsomes, pH 7.4",35.5 min
same,half-life at 10 µM,"[5]; male, Sprague-Dawley, rat, intestinal microsomes, pH 7.4",133 min
same,K,"[5]; rat intestinal microsomes, positive control 10 µM",-0.0052
same,K,[6],-0.3314
same,K,[2]; [7],-0.0914
same,t1/2,[2]; [7],7.6 min
